From patent publication US11427548B2 (Arvinas Operations, Inc., priority 2015, dated 2022)
Where two headings read alike, the source gives them in different places.

Biological target: T1, Androgen Receptor (Homo sapiens, UniProt P10275)
T1 construct: endogenous in cells; host or cells: VCaP cells
T1 sequence (P10275 1-920): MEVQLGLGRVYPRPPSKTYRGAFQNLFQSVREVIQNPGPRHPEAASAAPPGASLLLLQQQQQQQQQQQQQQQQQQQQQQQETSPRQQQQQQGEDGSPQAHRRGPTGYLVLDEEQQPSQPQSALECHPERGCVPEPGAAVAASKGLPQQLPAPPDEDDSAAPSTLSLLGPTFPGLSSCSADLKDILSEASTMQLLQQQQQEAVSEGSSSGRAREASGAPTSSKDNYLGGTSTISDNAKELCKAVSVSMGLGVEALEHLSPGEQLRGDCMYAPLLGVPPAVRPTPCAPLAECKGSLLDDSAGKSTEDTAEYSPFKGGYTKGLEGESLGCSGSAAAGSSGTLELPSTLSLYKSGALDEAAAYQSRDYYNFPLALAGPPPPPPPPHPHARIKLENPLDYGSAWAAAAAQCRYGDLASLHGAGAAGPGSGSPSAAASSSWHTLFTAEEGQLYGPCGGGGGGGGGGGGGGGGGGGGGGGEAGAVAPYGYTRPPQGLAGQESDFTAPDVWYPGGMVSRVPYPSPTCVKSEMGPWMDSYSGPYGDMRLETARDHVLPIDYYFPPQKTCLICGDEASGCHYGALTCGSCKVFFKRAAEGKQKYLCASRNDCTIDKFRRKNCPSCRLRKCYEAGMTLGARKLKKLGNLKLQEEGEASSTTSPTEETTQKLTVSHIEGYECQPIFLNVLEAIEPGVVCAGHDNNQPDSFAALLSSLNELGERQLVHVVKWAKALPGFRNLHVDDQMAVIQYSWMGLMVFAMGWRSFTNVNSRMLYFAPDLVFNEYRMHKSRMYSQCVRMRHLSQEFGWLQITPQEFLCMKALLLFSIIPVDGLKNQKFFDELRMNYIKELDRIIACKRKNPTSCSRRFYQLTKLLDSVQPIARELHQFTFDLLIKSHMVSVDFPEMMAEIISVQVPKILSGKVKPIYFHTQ
Test: Androgen Receptor ELISA assay (PathScan AR ELISA) in VCaP cells: AR degradation, Dmax and DC50
Type: cell-based
Summary of the method: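 VCaP cells in phenol red-free RPMI with 5% charcoal-stripped FBS were grown at least 3 days, then given compound as 7 half-log doses in 0.1% DMSO with 0.1 nM R1881 for 24 h. Lysates went into a sandwich AR ELISA with TMB read at 450 nm.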

[1] = VCaP cells; Table 34; read-out: VCaP DC50
[2] = VCaP, VCaP cells; Table 34; read-out: VCaP Dmax (%)
[3] = read-out: VCaP DC50; VCaP cells; Table 35
[4] = VCaP cells; Table 35; read-out: VCaP DC50
[5] = VCaP, VCaP cells; Table 35; read-out: VCaP Dmax (%)

Row | Structure (SMILES) | DC50 [4] | Dmax [5] | Dmax (VCaP, read-out: VCaP Dmax (%)) | DC50 [3] | also measured
1 | CCOC(=O)c1ncsc1-c1ccc(CNC(=O)[C@@H]2C[C@@H](O)CN2C(=O)[C@@H](NC(=O)COCCCCOc2ccc(-c3ccc(N4C(=S)N(c5ccc(C#N)c(C(F)(F)F)c5)C(=O)C4(C)C)cc3)cc2)C(C)(C)C)cc1 [Example 414] |  |  | < 25% |  | DC50 (read-out: VCaP DC50; VCaP cells; Table 34): < 50 nM
2 | CCc1ncsc1-c1ccc(CNC(=O)[C@@H]2C[C@@H](O)CN2C(=O)[C@@H](NC(=O)COCCCCNc2ccc(C(=O)N[C@H]3C(C)(C)[C@H](Oc4ccc(C#N)c(Cl)c4)C3(C)C)cc2)C(C)(C)C)cc1 [Example 415] |  |  |  |  | DC50 [1]: < 50 nM; Dmax [2]: > 71%
3 | Cc1ncsc1-c1ccc(CNC(=O)[C@@H]2C[C@@H](O)CN2C(=O)[C@@H](NC(=O)COCCCCNc2ccc(C(=O)N[C@H]3C(C)(C)[C@H](Oc4ccc(C#N)c(Cl)c4)C3(C)C)cn2)C(C)(C)C)cc1 [Example 416] |  |  |  |  | DC50 [1]: 51 to 500 nM; Dmax [2]: 26 to 50%
4 | Cc1ncsc1-c1ccc(CNC(=O)[C@@H]2C[C@@H](O)CN2C(=O)[C@@H](NC(=O)COc2ccccc2CCCOc2ccc(C(=O)N[C@H]3C(C)(C)[C@H](Oc4ccc(C#N)c(Cl)c4)C3(C)C)cc2)C(C)(C)C)cc1 [Example 417] |  |  |  |  | DC50 [1]: < 50 nM; Dmax [2]: > 71%
5 | Cc1ncsc1-c1ccc([C@H](C)NC(=O)[C@@H]2C[C@@H](O)CN2C(=O)[C@@H](C(C)C)n2cc(OCCCOCCC(O)CCOc3ccc(N4C(=S)N(c5ccc(C#N)c(C(F)(F)F)c5)C(=O)C4(C)C)cc3)cn2)cc1 (some centres unmarked) [Example 418] |  |  | 51 to 70% | < 50 nM | 
6 | Cc1ncsc1-c1ccc([C@H](C)NC(=O)[C@@H]2C[C@@H](O)CN2C(=O)[C@H](C(C)C)n2cc(OCCCOCCC(O)CCOc3ccc(N4C(=S)N(c5ccc(C#N)c(C(F)(F)F)c5)C(=O)C4(C)C)cc3)cn2)cc1 (some centres unmarked) [Example 419] |  |  | 26 to 50% | < 50 nM | 
7 | Cc1ncsc1-c1ccc(CNC(=O)[C@@H]2C[C@@H](O)CN2C(=O)[C@@H](NC(=O)COCC2CCN(c3ccc(-c4ccc(N5C(=S)N(c6ccc(C#N)c(C(F)(F)F)c6)C(=O)C5(C)C)cc4)cn3)CC2)C(C)(C)C)cc1 [Example 420] |  |  | 51 to 70% | 51 to 500 nM | 
8 | Cc1ncsc1-c1ccc([C@H](C)NC(=O)[C@@H]2C[C@@H](O)CN2C(=O)[C@@H](C(C)C)n2cc(Oc3cccc(OCCCCCOc4ccc(N5C(=S)N(c6ccc(C#N)c(C(F)(F)F)c6)C(=O)C5(C)C)cc4)c3)cn2)nc1 [Example 424] |  |  | < 25% | > 501 nM | 
9 | Cc1ncsc1-c1ccc([C@H](C)NC(=O)[C@@H]2C[C@@H](O)CN2C(=O)[C@H](C(C)C)n2cc(Oc3cccc(OCCCCCOc4ccc(N5C(=S)N(c6ccc(C#N)c(C(F)(F)F)c6)C(=O)C5(C)C)cc4)c3)cn2)nc1 [Example 426] |  |  | < 25% | > 501 nM | 
10 | Cc1ncsc1-c1ccc([C@H](C)NC(=O)[C@@H]2C[C@@H](O)CN2C(=O)[C@@H](C(C)C)n2cc(OCCCOCCCCCOc3ccc(N4C(=S)N(c5ccc(C#N)c(C(F)(F)F)c5)C(=O)C4(C)C)cc3)cn2)nc1 [Example 427] |  |  | < 25% | > 501 nM | 
11 | Cc1ncsc1-c1ccc([C@H](C)NC(=O)[C@@H]2C[C@@H](O)CN2C(=O)[C@H](C(C)C)n2cc(OCCCOCCCCCOc3ccc(N4C(=S)N(c5ccc(C#N)c(C(F)(F)F)c5)C(=O)C4(C)C)cc3)cn2)nc1 [Example 428] |  |  | < 25% | > 501 nM | 
12 | Cc1ncsc1-c1ccc([C@H](C)NC(=O)[C@@H]2C[C@@H](O)CN2C(=O)[C@@H](NC(=O)COc2ccc(OC3CCN(c4ccc(N5C(=S)N(c6ccc(C#N)c(C(F)(F)F)c6)C(=O)C5(C)C)cn4)CC3)nc2)C(C)(C)C)cc1 [Example 429] |  |  | 26 to 50% | > 501 nM | 
13 | Cc1ncsc1-c1ccc([C@H](C)NC(=O)[C@@H]2C[C@@H](O)CN2C(=O)[C@@H](NC(=O)COc2ccc(OC3CCN(c4ccc(N5C(=S)N(c6ccc(C#N)c(C(F)(F)F)c6)C(=O)C5(C)C)cc4)CC3)nc2)C(C)(C)C)cc1 [Example 430] |  |  | < 25% | > 501 nM | 
14 | Cc1ncsc1-c1ccc([C@H](C)NC(=O)[C@@H]2C[C@@H](O)CN2C(=O)[C@@H](C(C)C)n2cc(OCCCOCCCCCOc3ccc(N4C(=S)N(c5ccc(C#N)c(C(F)(F)F)c5)C(=O)C4(C)C)cc3)cn2)cc1 [Example 434] |  |  |  | > 501 nM | 
15 | Cc1ncsc1-c1ccc([C@H](C)NC(=O)[C@@H]2C[C@@H](O)CN2C(=O)[C@H](C(C)C)n2cc(OCCCOCCCCCOc3ccc(N4C(=S)N(c5ccc(C#N)c(C(F)(F)F)c5)C(=O)C4(C)C)cc3)cn2)cc1 [Example 435] |  |  |  | > 501 nM | 

More lines, main results first:

Row | DC50 [4] | Dmax [5] | Structure (SMILES) | Dmax (VCaP, read-out: VCaP Dmax (%)) | DC50 [3] | also measured
16 | < 50 nM | > 71% | Cc1ncsc1-c1ccc([C@H](C)NC(=O)[C@@H]2C[C@@H](O)CN2C(=O)[C@@H](NC(=O)c2cc3ccc(OC4CN(c5ncc(C(=O)N[C@H]6C(C)(C)[C@H](Oc7ccc(C#N)c(Cl)c7)C6(C)C)cn5)C4)cc3o2)C(C)(C)C)cc1 [Example 422] |  |  | 
17 | < 50 nM | > 71% | Cc1nccn1-c1ccc([C@H](C)NC(=O)[C@@H]2C[C@@H](O)CN2C(=O)[C@@H](NC(=O)COCCNc2ccc(-c3ccc(C(=O)N[C@H]4C(C)(C)[C@H](Oc5ccc(C#N)c(Cl)c5)C4(C)C)cc3)cn2)C(C)(C)C)cc1 [Example 425] |  |  | 
18 | > 501 nM | < 25% | Cc1ncsc1-c1ccc([C@H](C)NC(=O)[C@@H]2C[C@@H](O)CN2C(=O)[C@@H](NC(=O)CNC(=O)c2ccc(Oc3ccc(C(=O)N[C@H]4C(C)(C)[C@H](Oc5ccc(C#N)c(Cl)c5)C4(C)C)cn3)cc2)C(C)(C)C)nc1 [Example 432] |  |  | 
19 | < 50 nM | 51 to 70% | Cc1ncsc1-c1ccc([C@H](C)NC(=O)[C@@H]2C[C@@H](O)CN2C(=O)[C@@H](NC(=O)COc2ccc(OC3CCC(Oc4ccc(C(=O)N[C@H]5C(C)(C)[C@H](Oc6ccc(C#N)c(Cl)c6)C5(C)C)cc4)CC3)nc2)C(C)(C)C)cc1 (some centres unmarked) [Example 433] |  |  | 
20 | > 501 nM | 51 to 70% | Cc1ncsc1-c1ccc([C@H](C)NC(=O)[C@@H]2C[C@@H](O)CN2C(=O)[C@@H](C(C)C)n2cc(OCC3CCN(c4ccc(C(=O)N[C@H]5C(C)(C)[C@H](Oc6ccc(C#N)c(Cl)c6)C5(C)C)cc4)CC3)cn2)cc1 [Example 436] |  |  | 
21 | > 501 nM |  | Cc1ncsc1-c1ccc([C@H](C)NC(=O)[C@@H]2C[C@@H](O)CN2C(=O)[C@H](C(C)C)n2cc(OCC3CCN(c4ccc(C(=O)N[C@H]5C(C)(C)[C@H](Oc6ccc(C#N)c(Cl)c6)C5(C)C)cc4)CC3)cn2)cc1 [Example 437] |  |  | 
22 | < 50 nM | > 71% | Cc1ncsc1-c1ccc([C@H](C)NC(=O)[C@@H]2C[C@@H](O)CN2C(=O)[C@@H](NC(=O)COCCN2CCN(c3ccc(C(=O)N[C@H]4C(C)(C)[C@H](Oc5ccc(C#N)c(Cl)c5)C4(C)C)cc3)CC2)C(C)(C)C)cc1 [Example 438] |  |  | 
23 | < 50 nM | > 71% | Cc1ncsc1-c1ccc([C@H](C)NC(=O)[C@@H]2C[C@@H](O)CN2C(=O)[C@@H](NC(=O)COCC2CCN(c3ccc(C(=O)N[C@H]4C(C)(C)[C@H](Oc5ccc(C#N)c(Cl)c5)C4(C)C)cn3)CC2)C(C)(C)C)cc1 [Example 442] |  |  | 
24 | < 50 nM | > 71% | Cc1nccn1-c1ccc([C@H](C)NC(=O)[C@@H]2C[C@@H](O)CN2C(=O)[C@@H](NC(=O)CNC(=O)c2ccc(Oc3ccc(C(=O)N[C@H]4C(C)(C)[C@H](Oc5ccc(C#N)c(Cl)c5)C4(C)C)cc3)cc2)C(C)(C)C)cc1 [Example 444] |  |  | 
25 | < 50 nM | > 71% | Cc1ncsc1-c1ccc([C@H](C)NC(=O)[C@@H]2C[C@@H](O)CN2C(=O)[C@@H](NC(=O)COCCNc2ccc(-c3ccc(C(=O)N[C@H]4C(C)(C)[C@H](Oc5ccc(C#N)c(Cl)c5)C4(C)C)cc3)cn2)C(C)(C)C)cc1 [Example 445] |  |  | 
26 | > 501 nM | 26 to 50% | Cc1ncsc1-c1ccc(CNC(=O)[C@@H]2C[C@@H](O)CN2C(=O)[C@@H](NC(=O)COCCNc2ccc(-c3ccc(C(=O)N[C@H]4C(C)(C)[C@H](Oc5ccc(C#N)c(Cl)c5)C4(C)C)cc3)cn2)C(C)(C)C)nc1 [Example 446] |  |  | 
27 | < 50 nM | > 71% | Cc1ncsc1-c1ccc([C@H](C)NC(=O)[C@@H]2C[C@@H](O)CN2C(=O)[C@@H](NC(=O)COCC2CCN(c3ccc(C(=O)N[C@H]4C(C)(C)[C@H](Oc5ccc(C#N)c(Cl)c5)C4(C)C)cc3)CC2)C(C)(C)C)cc1 [Example 447] |  |  | 
28 | < 50 nM | > 71% | Cc1ncsc1-c1ccc([C@H](C)NC(=O)[C@@H]2C[C@@H](O)CN2C(=O)[C@@H](NC(=O)CNC(=O)c2ccc(Oc3ccc(C(=O)N[C@H]4C(C)(C)[C@H](Oc5ccc(C#N)c(Cl)c5)C4(C)C)cn3)cc2)C(C)(C)C)cc1 [Example 448] |  |  | 
